Test results taken from ChEMBL document CHEMBL1201862, “PubChem BioAssay data set” (2004).
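Briefly, cells in 96-well plates were exposed to five compound concentrations for 48 h, and endpoints were estimated by linear interpolation. GI50 marks 50% less growth.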 Active and inactive are the calls of the source. Rule as the data show it: active = GI50 up to about 1.1 µM and inactive = higher.

How the values were obtained:
Experiment in all cases: NCI tumour cell line growth inhibition, 48 h
[1] = system: SK-MEL-5
[2] = system: K562
[3] = system: SR
[4] = system: SNB-75
[5] = system: SF-539
[6] = system: A549
[7] = system: SK-MEL-28
[8] = system: MDA-MB-435
[9] = system: NCI-H23
[10] = system: NCI-H460
[11] = system: HOP-92
[12] = system: MCF7
[13] = system: OVCAR-5
[14] = system: EKVX
[15] = system: CCRF-CEM
[16] = system: SK-OV-3
[17] = system: ACHN
[18] = system: CAKI-1
[19] = system: IGROV-1
[20] = system: HCC 2998

Measured: GI50

CC(=O)OC12CC[N+]3(C)CCCCC3C1=Nc1ccccc12 (stereo not drawn)
inactive: [1] > 100 µM | [2] > 100 µM | [3] > 100 µM | [4] > 100 µM | [5] > 100 µM | [6] 40.5 µM | [7] > 100 µM | [8] > 100 µM | [9] > 100 µM | [10] > 100 µM | [11] > 100 µM | [12] > 100 µM | [13] > 100 µM | [14] 17.4 µM | [15] > 100 µM | [16] > 100 µM | [17] > 100 µM | [18] > 100 µM | [19] > 100 µM

COc1cccc2c1-c1c(OC)cccc1SS2
inactive: [1] 13.6 µM | [2] 27.5 µM | [3] 16.9 µM | [5] 17.7 µM | [6] 14.4 µM | [7] 16.8 µM | [8] 3.73 µM | [9] 18.6 µM | [20] 20.9 µM | [10] 18.2 µM | [11] 19.9 µM | [12] 20.3 µM | [13] 17.8 µM | [14] 13.1 µM | [17] 41.8 µM | [18] 25.2 µM | [19] 17.4 µM

COc1ccc(/C=N/N=C(\N)NO)c(OC)c1OC
inactive: [1] 24.6 µM | [2] 23.2 µM | [3] 25 µM | [5] 25.2 µM | [6] 13.3 µM | [7] > 100 µM | [8] 57.7 µM | [9] 31.3 µM | [20] 17.2 µM | [10] 33 µM | [11] 11.1 µM | [12] 11.5 µM | [13] 23.4 µM | [14] 16.6 µM | [15] 20 µM | [16] 51.4 µM | [17] 21.2 µM | [18] 54.3 µM | [19] 36.6 µM

O=CNCCCN1CCN(CCCNC=O)CC1
inactive: [1] > 100 µM | [2] > 100 µM | [3] > 100 µM | [5] > 100 µM | [6] > 100 µM | [7] > 100 µM | [8] > 100 µM | [9] > 100 µM | [20] > 100 µM | [11] > 100 µM | [12] > 100 µM | [13] > 100 µM | [14] > 100 µM | [15] > 100 µM | [16] > 100 µM | [17] > 100 µM | [18] > 100 µM | [19] > 100 µM

O=C(NN=C1CCN(Cc2ccccc2)CC1)C(O)(c1ccccc1)c1ccccc1
inactive: [1] > 100 µM | [3] > 100 µM | [4] > 100 µM | [5] > 100 µM | [6] > 100 µM | [7] > 100 µM | [8] > 100 µM | [9] > 100 µM | [20] > 100 µM | [11] > 100 µM | [12] > 100 µM | [13] > 100 µM | [14] > 100 µM | [15] > 100 µM | [16] > 100 µM | [19] > 100 µM

Cc1cc(C)c(O)c(Cc2cccc(Cc3cc(C)cc(C)c3O)c2O)c1
inactive: [1] > 100 µM | [2] 35.9 µM | [3] 77.6 µM | [4] > 100 µM | [5] > 100 µM | [6] > 100 µM | [7] > 100 µM | [8] > 100 µM | [9] > 100 µM | [10] > 100 µM | [11] > 100 µM | [12] > 100 µM | [13] > 100 µM | [14] > 100 µM | [15] 35.5 µM | [16] > 100 µM | [17] > 100 µM | [18] > 100 µM | [19] > 100 µM
